Laboratory results as given in a melting point compilation (Tetko et al.; mined from patent text by program, amines drawn as free bases though some values may be those of a salt).

Row | Structure (SMILES) | melting point [°C]
1 | Cc1cccc(S(=O)(=O)n2ccnc2)c1C#N | 93 to 95
2 | N#Cc1ccc(CN(N)c2ccc(Br)cc2)cc1 | 114
3 | CN1CCn2c(-c3ccc(F)c(-c4ccc(F)cc4C#N)c3)cnc2C1=O | 224
4 | N#CSCC(=O)N1CCCCC1 | 78 to 79
5 | C[C@@H]1N=C(c2ccccc2)c2cc(C#CCCCC(=O)O)ccc2N(C)C1=O | 62 to 63
6 | CC(O)(CC(=O)O)CC(=O)O | 108
7 | Oc1cc(C(F)(F)F)[nH]n1 | 211 to 215
8 | CN(C)C=NC(=O)C=Cc1ccccc1 | 91 to 93
9 | COC(=O)c1sc(C#N)cc1[N+](=O)[O-] | 83 to 85
10 | CSc1nc(N)c(O)c(=O)[nH]1 | 243 to 245
11 | CN(C)C[C@H]1CC[C@H](CCNc2ncc(Br)cn2)CC1 | 108 to 110
12 | CC(C)(C)NCC(O)c1ccc(N)c(C#N)c1Cl (stereo not drawn) | 85 to 88
13 | Cc1ccc(C2=CCCNC2)nc1C | 102 to 104
14 | c1ccc(-c2nc(CCCCCCc3nnn[nH]3)oc2-c2ccccc2)cc1 | 132
15 | O=C(CC1CCCCC1=O)c1ccc(O)cc1 (stereo not drawn) | 120 to 125
16 | CC(=O)c1ccc(-c2ccc(F)cc2F)cc1 | 82.5 to 83.5
17 | O=C(NC(=O)c1ccccc1)NC1CCCc2ccccc21 (stereo not drawn) | 166 to 169
18 | CCc1cc(OCc2ccc(-c3ccccc3-c3nnnn3-c3ccncc3)cc2)c2ccccc2n1 | 155 to 170
19 | COc1c(CN2CCNC2=C[N+](=O)[O-])cc(C)nc1[N+](=O)[O-] | 177 to 181
20 | Cc1nccc(N2CCN(C(=O)N3CCN(C(=O)OC(C)(C)C)CC3)CC2)n1 | 212 to 213
21 | Cn1c(=O)c2conc2n(C2CCCCC2)c1=O | 194 to 197
22 | CCCC[C@H](NC(=O)[C@H](CC(C)C)NC(=O)c1ccccc1C(F)(F)F)C(=O)CSCc1ccco1 | 102 to 106
23 | CS(=O)(=O)Nc1cccc(S(=O)(=O)N2CCOc3c(N4CCNCC4)cccc32)c1 | 158 to 164
24 | Cc1ccc(S(=O)(=O)N[C@@H]2COC(=O)[C@H]2Cc2ccccc2)cc1 | 108 to 109
25 | O=C(O)c1ccc(-c2nc(-c3cccc(C(F)(F)F)c3)co2)cc1 | 253 to 254
26 | CC(C)[C@@H](NS(=O)(=O)N1CCC(Oc2ccc(Cl)cn2)CC1)C(=O)NO | 97 to 98.4

Row | Structure (SMILES) | melting point [°C]
27 | CC1([C@H]2CC[C@@H](O)CC2)CC1 | 56 to 57
28 | CCOC1CCC(=O)N1S(=O)(=O)c1ccc(N)cc1 (stereo not drawn) | 185 to 186
29 | O=C1c2ccccc2C(=O)N1Cc1cccc(-c2nc(=O)c3ccccc3s2)n1 | 280 to 281
30 | CC(=Cc1c[nH]c2ccc3c(c12)CCCO3)[N+](=O)[O-] | 246 to 247
31 | CCN(CC)C(=O)NC1CC2c3cccc4[nH]c(C#Cc5ccc(C#N)cc5)c(c34)CC2N(C)C1 (stereo not drawn) | 150 to 151
32 | CCc1nc(=O)n(C)c2sccc12 | 156
33 | Cc1cc(Cl)c(N)c(Cl)c1 | 50 to 52
34 | Cc1ccn(C)c(=S)n1 | 138 to 140
35 | O=C(O)CCCCCCCCCCn1nc(-c2ccccc2)c(-c2ccccc2)c1-c1ccccc1 | 81.5 to 84
36 | Nc1ccc(S(=O)c2ccccc2)cc1[N+](=O)[O-] (stereo not drawn) | 146 to 147
37 | CCc1nc2ncnn2c(N)c1CCCCC(F)=C(F)F | 199
38 | CC[C@H]1CC[C@H](c2ccc(CCc3ccc(OC(F)F)cc3)cc2)CC1 | 51
39 | N#Cc1ccc(OCc2ccc(CCc3ccncc3)cc2)cc1 | 139 to 140
40 | COC(=O)c1c(C(=O)OC)n(Cc2cccc(C(N)=S)c2)c2ccccc12 | 176 to 178
41 | O=C(c1ccccc1)c1nc(-c2ccncc2)cs1 | 135 to 136
42 | CN1OCCN(c2cc(Cl)cc(Cl)c2)C1=O | 105 to 106
43 | BrCCCCCCOc1ccc(C2=NCCO2)cc1 | 79 to 81
44 | O=C1NC(=O)c2c(Sc3ccc(Cl)cc3)c(Sc3ccc(Cl)cc3)c(Sc3ccc(Cl)cc3)c(Br)c21 | 164 to 169
45 | CCC(C)C(NC(=O)C(CSC(C)=O)C(F)(F)F)C(=O)O (stereo not drawn) | 81 to 85
46 | CCCCCN(CCC12CC3CC(CC(C3)C1)C2)C(=O)NCCc1ccncc1 | 107 to 118
47 | CCCCCCCCCC(CC)SCCCCCCCCCCN1C(=O)CCC1=O (stereo not drawn) | 86
48 | O=C(O)C(Cc1ccccc1)Oc1c(Br)cc(-c2c(Br)ccc3sc4ccccc4c23)cc1Br (stereo not drawn) | 98 to 100
49 | O=[N+]([O-])c1cnccc1NCc1ccccc1 | 100 to 104
50 | Cc1ccc(C(=O)Nc2cn(C3CCCCO3)nc2C(=O)NCCC#N)cn1 (stereo not drawn) | 118 to 120
51 | CC(=O)c1ccc(-c2nc(=O)c3ccccc3s2)cc1 | 198

The remaining lines, values ahead:

Row | melting point [°C] | Structure (SMILES)
52 | 68 to 70 | CCCCCCCCOC(=O)CCc1cc(C(C)(C)C)c2oc(-c3ccc(-c4nc5cc(CCC(=O)OCCCCCCCC)cc(C(C)(C)C)c5o4)s3)nc2c1
53 | 251 to 253 | O=C(NCc1cccnc1)c1cc(N2CCN(Cc3ccc(F)cc3)C2=O)n[nH]1
54 | 98 | CON1C(=O)CC2(CCN(C(=O)OCc3ccccc3)CC2)C1=O
55 | 116 to 117 | C=CC(=O)NC(C)(C)c1ccc(OCc2ccccc2)cc1
56 | 138 to 139 | CCOC(=O)c1cnn(-c2ccc(OCC(C)C)c(C#N)c2)c1
57 | 182 to 183 | COC(=O)c1cc(CCCc2cc3c(=O)[nH]c(N)nc3[nH]2)cs1
58 | 192 | COc1ccc(-c2nc(Sc3ccc(C)cc3)n(C3CCCCO3)c2-c2ccc(OC)cc2)cc1 (stereo not drawn)
59 | 87 | CCOC(=O)/C(C#N)=C(\N)C(CC)CC
60 | 147 to 150 | CCOc1cccc(SCC(=O)O)c1CC(=O)O
61 | 150 to 152 | Nc1c(C(=O)O)cccc1-c1ccc(CCc2ccc(Cl)c(C(F)(F)F)c2)cc1
62 | 73 to 74 | CCOC(=O)CN(C(=O)CC)c1c(SC(F)(F)F)c(C)nn1-c1c(Cl)cc(C(F)(F)F)cc1Cl
63 | 69 to 70 | COCCCNc1cc(C(F)(F)F)ccc1N
64 | 103 to 107 | COC(C(C)C)C(C)(C)C(=O)Nc1ccc(Cl)cc1 (stereo not drawn)
65 | 108 to 125 | CNC(=O)c1cccc(C=NNc2ccc(C)cc2)c1O
66 | 102 | CCS(=O)(=O)ON=C(C#N)c1ccc(OC)cc1
67 | 238 | CC1CC2C3CC(Cl)C4=CC(=O)C=CC4(C)C3(Cl)C(O)CC2(C)C1C(=O)COC(=O)C(C)(C)C (stereo not drawn)
68 | 55 to 58 | CCCCC1=NC2(CCCC2)C(=O)N1Cc1ccc(-c2ccccc2S(=O)(=O)Nc2onc(C)c2C)c(OCCOC)c1
69 | 167 | N#Cc1cc(Oc2ccc3c(C(=O)Nc4cccc(C(F)(F)F)c4)cccc3c2)ncn1
70 | 277 to 280 | O=C1Nc2cc(F)ccc2C1c1ncnc2c1cnn2C1CCCCC1 (stereo not drawn)
71 | 41 to 43 | CCC(=O)OC1=C(CCCCCCCCC[Si](C)(C)C)C(=O)c2ccccc2C1=O
72 | 164 to 166 | COC(=O)c1cc(C(=O)NNC(=O)c2ccccn2)c2cc(Cc3ccc(F)cc3)cnc2c1O
73 | 177 to 180 | COc1ccc(NC(=O)N2CCc3cc(F)c(Cl)cc32)cc1N1CCN(C)CC1
74 | 90 to 100 | COc1cc(-c2cc(=Nc3c(C)cc(C)cc3C)n(C)c(=O)n2C)ccc1O
75 | 223 to 225 | Cc1ccc2c(c1)nc(C)c(=O)n2-c1ccc(Cl)cc1
76 | 64 to 65 | COc1ccc([N+](=O)[O-])c(CBr)c1
77 | 105 to 107 | COc1ccc(C(C)C)c(NC(=O)CN2CCN(CCCSc3nc4ccccc4o3)CC2)c1C(C)C

Row | melting point [°C] | Structure (SMILES)
78 | 249 to 253 | CC(C)(C(=O)O)n1c(=O)[nH]c2ccc(F)cc2c1=O
79 | 109 to 110 | CN=Cc1ccc2cc(OC)ccc2c1
80 | 100 | CCC(CC)C(=O)Nc1ccco1
81 | 169 to 170 | CCCC1=C(C(=O)OCC)C(c2cc(OC)ccc2OC)c2c[nH]nc2N1 (stereo not drawn)
82 | 259 to 260 | CCC(C)c1ccc(-n2c(-c3cc(C)c(OCCO)c(C)c3)nc3ccc(S(C)(=O)=O)cc3c2=O)cc1 (stereo not drawn)
83 | 138 to 141 | CCC(N(C)C)n1cc(C(=O)CN2CCCCC2)cc1C(=O)c1ccc(Cl)cc1 (stereo not drawn)
84 | 136 to 141 | O=C(OCCOC(c1ccccc1)(c1ccccc1)c1ccccc1)Oc1ccc([N+](=O)[O-])cc1
85 | 164 to 165 | COc1cc(OC(C)(C)C(=O)O)c(/C=C/C(=O)c2ccc(S(N)(=O)=O)cc2)cc1-c1cccs1
86 | 133 to 135 | CCCCCC(=O)OC(C)c1ccc(-c2ccc(C(=O)O)cc2)cc1 (single isomer, unassigned; (+))
87 | 109 to 110 | O=C(OCCc1ccc(OCc2ccc(Cl)cc2)cc1)c1cccnc1
88 | 132 to 133 | CC(C)(C)SC1CN(C(N)=O)CC1NS(=O)(=O)c1ccc(Oc2ccccc2)cc1 (stereo not drawn)
89 | 219 to 221 | O=C(c1ccc(-c2cc[nH]n2)cc1)N1Cc2cccn2Cc2ccccc21
90 | 117 to 119 | COc1ccc2c(Cl)nc(C(=O)NCCO)c(O)c2c1
91 | 237 | COC1=C(C(=O)c2ccc(C)cc2)C(c2ccc(C(C)C)cc2)N(c2ncc(S(=O)(=O)c3ccc([N+](=O)[O-])cc3)s2)C1=O (stereo not drawn)
92 | 146 to 148 | COc1cc(OC)cc(N2CCN(C(=O)Nc3cc(C(C)(C)O)c(C)nc3OC)CC2)c1
93 | 302 to 304 | COc1ccc(C2=Nc3ccc(N4CCOCC4)cc3C(=O)C2)cc1
94 | 109 to 111 | CCc1n[nH]c(CC)c1CCCCCCOc1ccc(O)cc1Cl
95 | 102 | CCC(CC)C(=O)Nc1cc(-c2ccccc2)nc(-c2ccccc2)n1
96 | 175 to 176 | O=C1NC(=O)C(CCc2ccc(O)cc2)S1 (stereo not drawn)
97 | 110 | CN(C)c1ccc(C(=O)c2cccc(N)c2)cc1
98 | 82 to 83 | Cc1cccc(C)c1C(=O)OC1CCCCC1=O (stereo not drawn)
99 | 204 to 206 | COCCc1nc2c(N)nc3ccccc3c2n1CC(C)(C)CNS(C)(=O)=O
100 | 182 to 184 | CC(C)Sc1c(C(N)=O)sc2cccc(Cl)c12
101 | 76 to 77 | CC(=O)C1(COC(=O)Oc2ccccc2)CC2C=CC1C2 (stereo not drawn)
102 | 198 to 201 | O=C1Nc2cc(Cl)c(Cl)cc2C1c1ccccc1Cl (stereo not drawn)
103 | 70 to 71 | COc1c(Cl)ncnc1OCCc1ccc(Cl)cc1
